Data as given in patent US20230113037A1 (Bayer Aktiengesellschaft, priority 2019, published 2023).
Where “and” joins values, the source holds several entries; their conditions need not be identical. Equal entries are not always repeated. Where two headings read alike, the source gives them in different places.

Legend:
AHR [1] = target: T1, AHR (Mus musculus, UniProt P30561); assay: In vitro assay 3: antagonism in mouse cell line (AHR transactivation, firefly luciferase reporter, kynurenic acid prestimulated); type: cell-based
T1 sequence (P30561 1-848 P471L/N533S/M589L): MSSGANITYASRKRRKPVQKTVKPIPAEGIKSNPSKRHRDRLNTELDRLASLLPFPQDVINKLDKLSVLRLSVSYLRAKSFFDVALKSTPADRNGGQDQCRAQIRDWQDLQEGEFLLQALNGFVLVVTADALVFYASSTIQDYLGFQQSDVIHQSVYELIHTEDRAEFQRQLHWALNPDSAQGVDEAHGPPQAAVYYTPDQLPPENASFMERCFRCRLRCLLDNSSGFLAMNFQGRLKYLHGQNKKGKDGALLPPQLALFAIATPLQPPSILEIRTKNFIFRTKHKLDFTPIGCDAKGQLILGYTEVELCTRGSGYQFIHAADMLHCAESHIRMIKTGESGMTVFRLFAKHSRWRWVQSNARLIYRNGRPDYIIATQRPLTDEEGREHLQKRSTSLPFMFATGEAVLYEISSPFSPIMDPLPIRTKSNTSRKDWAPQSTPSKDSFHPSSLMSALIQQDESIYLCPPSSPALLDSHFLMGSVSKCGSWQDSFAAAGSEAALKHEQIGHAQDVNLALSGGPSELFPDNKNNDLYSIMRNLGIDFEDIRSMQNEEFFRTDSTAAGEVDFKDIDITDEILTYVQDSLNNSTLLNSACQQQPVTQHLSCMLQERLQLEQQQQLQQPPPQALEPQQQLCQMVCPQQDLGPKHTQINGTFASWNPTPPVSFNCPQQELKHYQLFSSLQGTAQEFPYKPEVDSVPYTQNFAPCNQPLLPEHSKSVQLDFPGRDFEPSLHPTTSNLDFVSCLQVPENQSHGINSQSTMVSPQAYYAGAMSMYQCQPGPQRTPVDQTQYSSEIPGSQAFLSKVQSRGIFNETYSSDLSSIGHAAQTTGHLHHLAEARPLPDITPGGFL
Method in brief: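 Antagonism read as reduced firefly luciferase signal (SteadyGlo) from a stably transfected AHR/DRE reporter in a mouse line prestimulated with kynurenic acid. Data normalized to controls, the full-inhibition control being cells without kynurenic acid; multiple determinations given as average or median values.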

AHR [2] = target: T2, AHR (Homo sapiens, UniProt P35869); assay: In vitro assay 1: antagonism in human cell line (AHR transactivation, firefly luciferase reporter, kynurenic acid prestimulated); type: cell-based; settings: AHR Antagonism Human IC50 [M]
T2 construct: U87 MG glioblastoma cells (ATCC #HTB-14) endogenously expressing AHR; endogenous in cells; host or cells: U87 MG glioblastoma cells (ATCC #HTB-14)
T2 sequence (P35869 11-848): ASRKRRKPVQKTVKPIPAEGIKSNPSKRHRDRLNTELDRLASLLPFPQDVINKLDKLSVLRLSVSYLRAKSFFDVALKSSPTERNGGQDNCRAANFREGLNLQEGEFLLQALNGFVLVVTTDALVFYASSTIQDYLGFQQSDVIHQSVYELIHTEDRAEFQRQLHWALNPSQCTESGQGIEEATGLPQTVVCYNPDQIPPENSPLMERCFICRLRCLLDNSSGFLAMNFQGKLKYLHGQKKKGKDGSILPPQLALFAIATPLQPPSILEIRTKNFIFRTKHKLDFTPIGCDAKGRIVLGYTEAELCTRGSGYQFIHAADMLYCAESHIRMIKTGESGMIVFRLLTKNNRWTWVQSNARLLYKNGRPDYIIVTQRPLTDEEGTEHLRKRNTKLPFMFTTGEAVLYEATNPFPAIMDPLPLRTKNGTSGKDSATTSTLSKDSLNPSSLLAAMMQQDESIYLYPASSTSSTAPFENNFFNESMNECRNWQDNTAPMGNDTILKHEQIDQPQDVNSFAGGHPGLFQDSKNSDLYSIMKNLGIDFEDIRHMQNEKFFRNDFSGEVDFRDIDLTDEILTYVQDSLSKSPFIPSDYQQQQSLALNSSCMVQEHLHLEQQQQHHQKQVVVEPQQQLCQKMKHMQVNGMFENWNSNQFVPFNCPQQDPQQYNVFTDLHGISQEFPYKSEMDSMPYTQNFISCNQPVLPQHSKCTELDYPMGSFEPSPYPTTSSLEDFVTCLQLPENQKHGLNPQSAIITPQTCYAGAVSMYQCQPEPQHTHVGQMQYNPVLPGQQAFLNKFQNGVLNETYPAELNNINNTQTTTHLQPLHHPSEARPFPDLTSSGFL
Method in brief: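 Antagonism measured as loss of kynurenic acid-driven firefly luciferase from DRE reporter in stably transfected U87 MG cells; constitutive Renilla signal monitors cytotoxicity. Positive/negative control normalization, staurosporine 5 μM with 150 μM kynurenic acid as inhibition control; replicates given as mean or median.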

[3] = mouse Hepa 1c1c7 cells, 200 μM kynurenic acid, 20 hours, read-out: AHR Antagonism Mouse IC50
[4] = Hepa 1c1c7 cells, 200 μM kynurenic acid, 20 hours, firefly luciferase reporter, read-out: AHR Antagonism Mouse IC50

SMILES	IC50 (AHR [1]; [3])	IC50 (AHR [2])	IC50 (AHR [1]; [4])	IC50 (AHR [2]; firefly luciferase reporter)	IC50 (AHR [1]; read-out: AHR Antagonism Mouse IC50, Hepa 1c1c7 cells, 200 μM kynurenic acid, 20 hours, firefly luciferase reporter)
Cc1noc(-c2nc3c4ccccc4nc(N[C@@H]4CCCCNC4=O)n3n2)n1 [Example 131, (3R)-3-{[2-(3-methyl-1,2,4-oxadiazol-5-yl)[1,2,4]triazolo[1,5-c]quinazolin-5-yl]amino}azepan-2-one]	93.8 nM	1.79e-07 M	–	–	–
O=C1NCCCC[C@H]1Nc1nc2ccccc2c2nc(-c3cnn(C4CCOCC4)c3)nn12 [Example 600, (3R)-3-({2-[1-(oxan-4-yl)-1H-pyrazol-4-yI][1,2,4]triazolo[1,5-c]quinazolin-5-yl}amino)azepan-2-one]	31.3 nM	4.48e-08 M	–	–	–
COc1cccc(-c2nc3c4ccccc4nc(NC4(C(N)=O)COC4)n3n2)c1 [Example 87, 3-{[2-(3-methoxyphenyl)[1,2,4]triazolo[1,5-c]quinazolin-5-yl]amino}oxetane-3-carboxamide]	282 nM	4.85e-07 M	–	–	–
Cc1nn(C)cc1-c1nc2c3cccc(Br)c3nc(N[C@@H]3CNCCNC3=O)n2n1 [Example 962, (6R)-6-{[7-bromo-2-(1,3-dimethyl-1H-pyrazol-4-yl)[1,2,4]triazolo[1,5-c]quinazolin-5-yl]amino}-1,4-diazepan-5-one]	–	–	10.9 nM	4.37e-09 M	–
COc1ccc(-c2nc3c4ccc(C(F)(F)F)cc4nc(N[C@@H]4CCCCNC4=O)n3n2)cc1 [Example 548, (3R)-3-{[2-(4-methoxyphenyl)-8-(trifluoromethyl)[1,2,4]triazolo[1,5-c]quinazolin-5-yl]amino}azepan-2-one]	2400 nM	9.46e-07 M	–	–	–
COc1ccc(-c2nc3c4c(CO)cccc4nc(N[C@@H]4CCCCNC4=O)n3n2)cc1 [Example 862, (3R)-3-{[10-(hydroxymethyl)-2-(4-methoxyphenyl)[1,2,4]triazolo[1,5-c]quinazolin-5-yl]amino}azepan-2-one]	–	–	4.12 nM	1.86e-09 M	–
CC[C@H](Nc1nc2ccccc2c2nc(-c3ccc(OC)cc3C(F)(F)F)nn12)C(N)=O [Example 514, (2S)-2-({2-[4-methoxy-2-(trifluoromethyl)phenyl][1,2,4]triazolo[1,5-c]quinazolin-5-yl}amino)butanamide]	188 nM	> 2e-05 M	–	–	–
CC(C)n1cc(-c2nc3c4cccc(Cl)c4nc(N[C@@H]4CNCCNC4=O)n3n2)cn1 [Example 956, (6R)-6-({7-chloro-2-[1-(propan-2-yl)-1H-pyrazol-4-yl][1,2,4]triazolo[1,5-c]quinazolin-5-yl}amino)-1,4-diazepan-5-one]	–	–	8.5 nM	5.77e-09 M	–
CC[C@@H](Nc1nc2ccccc2c2nc(-c3ccccc3OC(F)(F)F)nn12)C(N)=O [Example 469, (2R)-2-({2-[2-(trifluoromethoxy)phenyl][1,2,4]triazolo[1,5-c]quinazolin-5-yl}amino)butanamide]	1.2 nM	1.64e-08 M	–	–	–
COc1ccc(-c2nc3c4cccc(OC5CCC5)c4nc(N[C@@H]4CCCCNC4=O)n3n2)cc1 [Example 998, (3R)-3-{[7-(cyclobutyloxy)-2-(4-methoxyphenyl)[1,2,4]triazolo[1,5-c]quinazolin-5-yl]amino}azepan-2-one]	–	–	279 nM	4.16e-07 M	–
CC[C@@H](Nc1nc2c(Br)cccc2c2nc(-c3ccc(OC)cc3)nn12)C(N)=O [Example 557, (2R)-2-{[7-bromo-2-(4-methoxyphenyl)[1,2,4]triazolo[1,5-c]quinazolin-5-yl]amino}butanamide]	0.865 nM	2.39e-10 M	–	–	–
Cc1cscc1-c1nc2c3ccccc3nc(N[C@H]3CCCCNC3=O)n2n1 [Example 539, (3S)-3-{[2-(4-methylthiophen-3-yl)[1,2,4]triazolo[1,5-c]quinazolin-5-yl]amino}azepan-2-one]	7.71 nM	6.16e-08 M	–	–	–
CCCNC(=O)[C@@H](C)Nc1nc2c(Br)cccc2c2nc(-c3cnn(C)c3)nn12 [Example 796, N^2-[7-bromo-2-(1-methyl-1H-pyrazol-4-yl)[1,2,4]triazolo[1,5-c]quinazolin-5-yl]-N-propyl-D-alaninamide]	–	–	20.2 nM	1.37e-08 M	–
CCNC(=O)C(CC)Nc1nc2ccccc2c2nc(-c3cccc(OC(F)(F)F)c3)nn12 (centres unmarked) [Example 318, N-ethyl-2-({2-[3-(trifluoromethoxy)phenyl][1,2J4]triazolo[1,5-c]quinazolin-5-yl}amino)butanamide]	0.603 nM	1.29e-08 M	–	–	–
NC(=O)[C@@H](CO)Nc1nc2ccccc2c2nc(-c3cccc(OC(F)(F)F)c3)nn12 [Example 313, N^2-{2-[3-(trifluoromethoxy)phenyl][1,2,4]triazolo[1,5-c]quinazolin-5-yl}-D-serinamide]	99.2 nM	1.06e-07 M	–	–	–
Cn1cc(-c2nc3c4ccccc4nc(NC4CCCNC4=O)n3n2)cn1 (single isomer, unassigned) [Example 21, 3-{[2-(1-methyl-1H-pyrazol-4-yl)[1,2,4]triazolo[1,5-c]quinazolin-5-yl]amino}piperidin-2-one]	> 20000 nM and 19700 nM	1.29e-05 M	–	–	–
O=C1NCCNC[C@@H]1Nc1nc2c(Br)cccc2c2nc(-c3cnn(C4CC4)c3)nn12 [Example 953, (6S)-6-{[7-bromo-2-(1-cyclopropyl-1H-pyrazol-4-yl)[1,2,4]triazolo[1,5-c]quinazolin-5-yl]amino}-1,4-diazepan-5-one]	–	–	–	2.14e-08 M	14.9 nM
Cc1cc(C(F)F)c2nc(N[C@@H]3CCCCNC3=O)n3nc(-c4cnn(C)c4)nc3c2c1 [Example 406, (3R)-3-{[7-(difluoromethyl)-9-methyl-2-(1-methyl-1H-pyrazol-4-yl)[1,2,4]triazolo[1,5-c]quinazolin-5-yl]amino}azepan-2-one]	7750 nM	1.01e-07 M	–	–	–
Cn1cc(-c2nc3c4cccc(Br)c4nc(N[C@H]4C[S+]([O-])CCNC4=O)n3n2)cn1 (single isomer, unassigned) [Example 849]	–	–	513 nM	4.87e-07 M	–
NC(=O)[C@@H](CO)Nc1nc2ccccc2c2nc(-c3ccccc3)nn12 [Example 2, N^2-(2-phenyl[1,2,4]triazolo[1,5-c]quinazolin-5-yl)-D-serinamide]	68.6 nM	2.4e-08 M	–	–	–
CCS(=O)(=O)c1cccc2c1nc(N[C@@H]1CNCCNC1=O)n1nc(-c3cnn(C)c3)nc21 [Example 942, (6R)-6-{[7-(ethanesulfonyl)-2-(1-methyl-1H-pyrazol-4-yl)[1,2,4]triazolo[1,5-c]quinazolin-5-yl]amino}-1,4-diazepan-5-one]	–	–	4750 nM	7.67e-07 M	–
COc1ccc(-c2nc3c4cccc(Br)c4nc(N[C@H](C)C(=O)N4CCO[C@@H](C)C4)n3n2)cc1 [Example 909, (2R)-2-{[7-bromo-2-(4-methoxyphenyl)[1,2,4]triazolo[1,5-c]quinazolin-5-yl]amino}-1-[(2S)-2-methylmorpholin-4-yl]propan-1-one]	–	–	1.68 nM	2.36e-09 M	–
